Assay results from patent publication US10294202B2, “Pyrrolidinones as herbicides” (FMC Corporation, priority 2013, dated 2019).

Assays:
[1] = test system: wheat (winter wheat); assay: Test C pre-/postemergence herbicide test; type: in vivo, Triticum aestivum
Outline: (§1)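 Plants grown and held in a greenhouse for 13 to 15 days post-spray, then rated 0–100 by visual comparison with controls. Pre treatments targeted seeds in loam and sand; post treatments targeted 1- to 4-leaf plants in peat-based potting medium.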

[2] = test system: crabgrass, large; assay: Test C pre-/postemergence herbicide test; type: in vivo, Digitaria sanguinalis
Outline: as §1

[3] = test system: lambsquarters; assay: Test C pre-/postemergence herbicide test; type: in vivo, Chenopodium album
Outline: as §1

[4] = test system: pigweed; assay: Test C pre-/postemergence herbicide test; type: in vivo, Amaranthus retroflexus
Outline: as §1

[5] = test system: velvetleaf; assay: Test C pre-/postemergence herbicide test; type: in vivo, Abutilon theophrasti
Outline: as §1

[6] = test system: chickweed; assay: Test C postemergence herbicide test; type: in vivo, Stellaria media
Excerpt: At the same time, plants selected from these crop and weed species and also barley (winter barley, Hordeum vulgare), […]), chickweed (common chickweed, Stellaria media), deadnettle (henbit deadnettle, Lamium amplexicaule), and canarygrass (littleseed canarygrass, Phalaris minor) were planted in pots containing Redi-Earth® planting medium (Scotts Company, 14111 Scottslawn Road, Marysville, Ohio 43041) comprising spaghnum peat moss, vermiculite, wetting agent and starter nutrients and treated with postemergence applications of test chemicals formulated in the same manner. Plants ranged in height from 2 to 18 cm (1- to 4-leaf stage) for postemergence treatments. Treated plants and controls were maintained in a greenhouse for 13 to 15 days, after which time all species were compared to controls and visually evaluated. Plant response ratings, summarized in Table C, are based on a scale of 0 to 100 where 0 is no effect and 100 is complete control. A dash (-) response means no test result.

[7] = Postemergence, 31 g ai/ha, scale 0 (no effect) to 100 (complete control)
[8] = Postemergence, 62 g ai/ha, scale 0 to 100 (0 no effect, 100 complete control)
[9] = Postemergence, 125 g ai/ha, scale 0 to 100 (0 no effect, 100 complete control)
[10] = Postemergence, 250 g ai/ha, scale 0 to 100 (0 no effect, 100 complete control)
[11] = 31 g ai/ha, scale 0 (no effect) to 100 (complete control)
[12] = 62 g ai/ha, scale 0 to 100 (0 no effect, 100 complete control)
[13] = 125 g ai/ha, scale 0 to 100 (0 no effect, 100 complete control)
[14] = 250 g ai/ha, scale 0 to 100 (0 no effect, 100 complete control)
[15] = Postemergence, 16 g ai/ha, scale 0 to 100 (0 no effect, 100 complete control)
[16] = Preemergence, 62 g ai/ha, scale 0 to 100
[17] = Preemergence, 125 g ai/ha, scale 0 to 100 (0 no effect, 100 complete control)
[18] = Preemergence, 16 g ai/ha, scale 0 to 100
[19] = Preemergence, 31 g ai/ha, scale 0 to 100 (0 no effect, 100 complete control)

Cc1c(F)cccc1NC(=O)C1C(=O)NCC1c1ccc(F)c(F)c1 (racemic) [Compound 106]
Plant response rating, Wheat [1, 7]: 0 | Plant response rating, Wheat [1, 8]: 0 | Plant response rating, Wheat [1, 9]: 0 | Plant response rating, Wheat [1, 10]: 0 | Plant response rating, Crabgrass, Large [2, 7]: 10 | Plant response rating, Crabgrass, Large [2, 8]: 10 | Plant response rating, Crabgrass, Large [2, 9]: 25 | Plant response rating, Crabgrass, Large [2, 10]: 60 | Plant response rating, Lambsquarters [3, 7]: 0 | Plant response rating, Lambsquarters [3, 8]: 25 | Plant response rating, Lambsquarters [3, 9]: 0 | Plant response rating, Lambsquarters [3, 10]: 0 | Plant response rating, Pigweed [4, 7]: 0 | Plant response rating, Pigweed [4, 8]: 0 | Plant response rating, Pigweed [4, 9]: 5 | Plant response rating, Pigweed [4, 10]: 30 | Plant response rating, Velvetleaf [5, 7]: 0 | Plant response rating, Velvetleaf [5, 8]: 0 | Plant response rating, Velvetleaf [5, 9]: 5 | Plant response rating, Velvetleaf [5, 10]: 5 | Plant response rating, Chickweed [6, 11]: 0 | Plant response rating, Chickweed [6, 12]: 0 | Plant response rating, Chickweed [6, 13]: 5 | Plant response rating, Chickweed [6, 14]: 30

O=C1NCC(c2cc(F)c(F)c(F)c2)C1C(=O)Nc1cccc(F)c1F (centres unmarked) [Compound 48]
Plant response rating, Wheat [1, 15]: 0 | Plant response rating, Wheat [1, 7]: 0 | Plant response rating, Wheat [1, 8]: 0 | Plant response rating, Wheat [1, 9]: 5 | Plant response rating, Wheat [1, 16]: 20 | Plant response rating, Wheat [1, 17]: 45 | Plant response rating, Wheat [1, 18]: 0 | Plant response rating, Crabgrass, Large [2, 15]: 20 | Plant response rating, Crabgrass, Large [2, 7]: 40 | Plant response rating, Crabgrass, Large [2, 8]: 65 | Plant response rating, Crabgrass, Large [2, 9]: 75 | Plant response rating, Crabgrass, Large [2, 16]: 90 | Plant response rating, Crabgrass, Large [2, 17]: 95 | Plant response rating, Crabgrass, Large [2, 18]: 75 | Crabgrass, Large plant response rating [2, 19]: 85 | Plant response rating, Lambsquarters [3, 7]: 10 | Plant response rating, Lambsquarters [3, 9]: 10 | Plant response rating, Lambsquarters [3, 16]: 65 | Plant response rating, Lambsquarters [3, 17]: 65 | Plant response rating, Lambsquarters [3, 18]: 0 | Plant response rating, Pigweed [4, 15]: 10 | Plant response rating, Pigweed [4, 7]: 25 | Plant response rating, Pigweed [4, 8]: 30 | Plant response rating, Pigweed [4, 9]: 40 | Plant response rating, Pigweed [4, 16]: 0 | Plant response rating, Pigweed [4, 17]: 0 | Plant response rating, Pigweed [4, 18]: 0 | Plant response rating, Velvetleaf [5, 15]: 0 | Plant response rating, Velvetleaf [5, 7]: 0 | Plant response rating, Velvetleaf [5, 8]: 15 | Plant response rating, Velvetleaf [5, 9]: 35 | Plant response rating, Velvetleaf [5, 16]: 0 | Plant response rating, Velvetleaf [5, 17]: 0 | Plant response rating, Velvetleaf [5, 18]: 0 | Plant response rating, Chickweed ([6]; 16 g ai/ha, scale 0 to 100 (0 no effect, 100 complete control)): 0 | Plant response rating, Chickweed [6, 11]: 0 | Plant response rating, Chickweed [6, 12]: 30 | Plant response rating, Chickweed [6, 13]: 30

O=C1NCC(c2cc(F)c(F)cc2F)C1C(=O)Nc1cccc(F)c1F (centres unmarked) [Compound 50]
Plant response rating, Wheat [1, 7]: 0 | Plant response rating, Wheat [1, 8]: 0 | Plant response rating, Wheat [1, 9]: 0 | Plant response rating, Wheat [1, 10]: 0 | Plant response rating, Crabgrass, Large [2, 7]: 10 | Plant response rating, Crabgrass, Large [2, 8]: 25 | Plant response rating, Crabgrass, Large [2, 9]: 40 | Plant response rating, Crabgrass, Large [2, 10]: 75 | Plant response rating, Lambsquarters [3, 7]: 5 | Plant response rating, Lambsquarters [3, 8]: 10 | Plant response rating, Lambsquarters [3, 9]: 10 | Plant response rating, Lambsquarters [3, 10]: 15 | Plant response rating, Pigweed [4, 7]: 10 | Plant response rating, Pigweed [4, 8]: 10 | Plant response rating, Pigweed [4, 9]: 20 | Plant response rating, Pigweed [4, 10]: 20 | Plant response rating, Velvetleaf [5, 7]: 0 | Plant response rating, Velvetleaf [5, 8]: 15 | Plant response rating, Velvetleaf [5, 9]: 25 | Plant response rating, Velvetleaf [5, 10]: 45 | Plant response rating, Chickweed [6, 11]: 0 | Plant response rating, Chickweed [6, 12]: 0 | Plant response rating, Chickweed [6, 13]: 0 | Plant response rating, Chickweed [6, 14]: 5

O=C1NCC(c2ccc(F)c(Cl)c2)C1C(=O)Nc1ccccc1F (centres unmarked) [Compound 60]
Plant response rating, Wheat [1, 7]: 0 | Plant response rating, Wheat [1, 8]: 0 | Plant response rating, Wheat [1, 9]: 5 | Plant response rating, Wheat [1, 16]: 0 | Plant response rating, Wheat [1, 17]: 0 | Plant response rating, Crabgrass, Large [2, 7]: 20 | Plant response rating, Crabgrass, Large [2, 8]: 50 | Plant response rating, Crabgrass, Large [2, 9]: 75 | Plant response rating, Crabgrass, Large [2, 16]: 95 | Plant response rating, Crabgrass, Large [2, 17]: 95 | Crabgrass, Large plant response rating [2, 19]: 85 | Plant response rating, Lambsquarters [3, 7]: 5 | Plant response rating, Lambsquarters [3, 8]: 20 | Plant response rating, Lambsquarters [3, 9]: 20 | Plant response rating, Lambsquarters [3, 17]: 10 | Plant response rating, Pigweed [4, 8]: 20 | Plant response rating, Pigweed [4, 9]: 20 | Plant response rating, Pigweed [4, 16]: 10 | Plant response rating, Pigweed [4, 17]: 20 | Plant response rating, Velvetleaf [5, 7]: 0 | Plant response rating, Velvetleaf [5, 8]: 0 | Plant response rating, Velvetleaf [5, 9]: 5 | Plant response rating, Velvetleaf [5, 16]: 0 | Plant response rating, Velvetleaf [5, 17]: 0 | Plant response rating, Chickweed [6, 11]: 0 | Plant response rating, Chickweed [6, 12]: 10 | Plant response rating, Chickweed [6, 13]: 30
